This is an account of results in US20250092039A1, “GLUTARIMIDE-CONTAINING PAN-KRAS-MUTANT DEGRADER COMPOUNDS AND USES THEREOF” (Tiger Biotherapeutics Inc., priority 2022, published 2025).

Usually IC50 stands for the concentration at which inhibition is half-maximal. Lower therefore signals higher potency. As a reminder, the GI50 is the concentration giving 50% growth inhibition. Usually DC50 stands for the concentration at which degradation of the target reaches its halfway point. Higher therefore signals a less potent degrader.

Read-outs that look alike come from different tables or passages of the source.

Test [1] addresses KRAS-G12V/RAF1 (Homo sapiens (Human), UniProt P01116, G12V). Description: KRAS/RAF1 binding inhibition assay (AlphaScreen). Summed up:
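Binding of GppNHp-loaded KRAS G12V to the RAF1 RBD was measured by AlphaScreen with test compound present in 2% DMSO (final), 60 min incubation at 4° C. Signals were converted to % inhibition versus DMSO, and IC50 was obtained by variable-slope nonlinear regression.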
On the technique in general: In Alpha technology, singlet oxygen from a donor bead excites a nearby acceptor bead.

Test [2] has as its system SW620 cells. Description: 3D cell growth inhibition of SW620 cells carrying endogenous KRAS G12V mutation (CellTiter-Glo 3D, GI50). Type of test: cell-based. The settings on record: Homo sapiens, SW-620, 144 h, read-out: SW620 3D cell growth GI50. As to the method: The following day, the test compound was administered to the cells by using 1000× compound stock solution prepared in DMSO at various concentrations. 1000× compound stock solution was first diluted in culturing medium to 10×, then 10 μL compound medium was added to each well in the cell plates. After administration of the compound, the cells were then incubated at 37° C. for 6 days. Upon completion, the plates were equilibrated at room temperature for approximately 10 minutes. 100 μL of CellTiter-Glo® 3D Reagent (Promega) was added to each well. The plates were then incubated at room temperature for 30 minutes and luminescence was recorded by EnSpire plate reader (PerkinElmer).
(In general: In ATP-based viability assays light output follows the ATP content of the culture.)

Test [3] deals with KRAS G12V (Homo sapiens (Human), UniProt P01116, G12V). In words: KRAS G12V degradation in SW620 cells (Western blot, DC50). Type of test: cell-based. The settings on record: 24 hours. Summed up: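 SW620 cells (homozygous KRAS G12V) were treated with compound for 24 hours at 37° C. KRAS in lysates was measured by Western blot with fluorescent secondary antibodies and expressed relative to DMSO vehicle (100%). DC50 came from a four-parameter variable-slope dose-response fit.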
KRAS G12V, sequence (P01116-2 other isoform, or with tags, fused parts or gaps G12V): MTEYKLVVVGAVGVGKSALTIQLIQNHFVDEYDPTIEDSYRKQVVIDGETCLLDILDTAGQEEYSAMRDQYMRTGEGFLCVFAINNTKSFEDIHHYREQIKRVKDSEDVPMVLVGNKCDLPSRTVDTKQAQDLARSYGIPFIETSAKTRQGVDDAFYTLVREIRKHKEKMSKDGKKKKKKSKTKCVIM
(In general: A western blot detects proteins with antibodies after separation by electrophoresis.)

KRAS-G12V/RAF1, sequence (P01116-2 other isoform, or with tags, fused parts or gaps G12V): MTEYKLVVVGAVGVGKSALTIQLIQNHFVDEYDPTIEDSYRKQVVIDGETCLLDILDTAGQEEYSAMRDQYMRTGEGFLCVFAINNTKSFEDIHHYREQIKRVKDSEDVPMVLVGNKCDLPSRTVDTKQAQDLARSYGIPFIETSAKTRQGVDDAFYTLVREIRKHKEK

For `CCc1cccc2cc(O)cc(-c3ncc4c(N(C)[C@@H]5C[C@H]5F)nc(OCC5(CN6CCC(CN7CCN(c8ccc9c(c8)CN([C@H]8CCC(=O)NC8=O)C9=O)CC7)CC6)CC5)nc4c3F)c12` [Compound 29, (S)-3-(5-(4-((1-((1-(((7-(8-ethyl-3-hydroxynaphthalen-1-yl)-8-fluoro-4-(((1R,2R)-2-fluorocyclopropyl)(methyl)amino)pyrido[4,3-d]pyrimidin-2-yl)oxy)methyl)cyclopropyl)methyl)piperidin-4-yl)methyl)piperazin-1-yl)-1-oxoisoindolin-2-yl)piperidine-2,6-dione], the IC50 in test [1] was above 200 nM. Besides, the GI50 in test [2] (SW620 cells, 6 days) fell in the range of 10 to 100 nM.

In test [3], `C[C@@]1(O)CCCN(c2nc(OCC3(CN4CCC5(CCC(N6CCN(c7ccc8c(c7)CN([C@H]7CCC(=O)NC7=O)C8=O)CC6)CC5)CC4)CC3)nc3c(F)c(-c4cc(N)cc5ccc(F)c(F)c45)ncc23)C1` [Compound 35, (S)-3-(5-(4-(3-((1-(((7-(3-amino-7,8-difluoronaphthalen-1-yl)-8-fluoro-4-((R)-3-hydroxy-3-methylpiperidin-1-yl)pyrido[4,3-d]pyrimidin-2-yl)oxy)methyl)cyclopropyl)methyl)-3-azaspiro[5.5]undecan-9-yl)piperazin-1-yl)-1-oxoisoindolin-2-yl)piperidine-2,6-dione] registered a DC50 above 100 nM. Further, in test [2] (SW620 cells, 6 days), the GI50 was above 100 nM.

In test [3], `CCc1c(F)ccc2cc(O)cc(-c3ncc4c(N5CCC[C@@](C)(OC)C5)nc(OCC5(CN6CCC7(CC6)CC(CN6CCN(c8ccc9c(c8)CN([C@H]8CCC(=O)NC8=O)C9=O)CC6)C7)CC5)nc4c3F)c12` [Compound 36, (S)-3-(5-(4-((7-((1-(((7-(8-ethyl-7-fluoro-3-hydroxynaphthalen-1-yl)-8-fluoro-4-((R)-3-methoxy-3-methylpiperidin-1-yl)pyrido[4,3-d]pyrimidin-2-yl)oxy)methyl)cyclopropyl)methyl)-7-azaspiro[3.5]nonan-2-yl)methyl)piperazin-1-yl)-1-oxoisoindolin-2-yl)piperidine-2,6-dione] displayed a DC50 above 100 nM. Also, the GI50 in test [2] (SW620 cells, 6 days) was above 100 nM.

Turning to `CCc1c(F)ccc2cc(O)cc(-c3ncc4c(N5CCCC6(CCO6)C5)nc(OCC5(CN6CCC(CN7CC(N8CCN(c9ccc%10c(c9)CN([C@H]9CCC(=O)NC9=O)C%10=O)CC8)C7)CC6)CC5)nc4c3F)c12` (stereo partly drawn) [Compound 37, (3S)-3-(5-(4-(1-((1-((1-(((7-(8-ethyl-7-fluoro-3-hydroxynaphthalen-1-yl)-8-fluoro-4-(1-oxa-6-azaspiro[3.5]nonan-6-yl)pyrido[4,3-d]pyrimidin-2-yl)oxy)methyl)cyclopropyl)methyl)piperidin-4-yl)methyl)azetidin-3-yl)piperazin-1-yl)-1-oxoisoindolin-2-yl)piperidine-2,6-dione], the DC50 in test [3] lay in the range of 1 to 10 nM. The GI50 in test [2] (SW620 cells, 6 days) is below 10 nM.

Consider `CCc1c(F)ccc2cc(O)cc(-c3ncc4c(N5CCC[C@]6(CCO6)C5)nc(OCC5(CN6CCC(CN7CCN(c8ccc9c(c8)CN([C@H]8CCC(=O)NC8=O)C9=O)CC7)CC6)CC5)nc4c3F)c12` [Compound 44, (S)-3-(5-(4-((1-((1-(((7-(8-ethyl-7-fluoro-3-hydroxynaphthalen-1-yl)-8-fluoro-4-((S)-1-oxa-6-azaspiro[3.5]nonan-6-yl)pyrido[4,3-d]pyrimidin-2-yl)oxy)methyl)cyclopropyl)methyl)piperidin-4-yl)methyl)piperazin-1-yl)-1-oxoisoindolin-2-yl)piperidine-2,6-dione], for which the IC50 in test [1] was in the range of 20 to 200 nM. For the same molecule, the GI50 in test [2] (SW620 cells, 6 days) was below 10 nM.

On to `CCc1c(F)ccc2cc(O)cc(-c3ncc4c(N5CCC[C@]6(CCO6)C5)nc(OCC5(CN6CC7(CCC(N8CCN(c9cc(F)c(C%10CCC(=O)NC%10=O)c(F)c9)CC8)CC7)C6)CC5)nc4c3F)c12` (stereo partly drawn) [Compound 85, 3-(4-(4-(2-((1-(((7-(8-ethyl-7-fluoro-3-hydroxynaphthalen-1-yl)-8-fluoro-4-((S)-1-oxa-6-azaspiro[3.5]nonan-6-yl)pyrido[4,3-d]pyrimidin-2-yl)oxy)methyl)cyclopropyl)methyl)-2-azaspiro[3.5]nonan-7-yl)piperazin-1-yl)-2,6-difluorophenyl)piperidine-2,6-dione], for which the DC50 in test [3] lay in the range of 1 to 10 nM. Also, the GI50 in test [2] (SW620 cells, 6 days) was below 10 nM.

In turn, `CCc1c(F)ccc2cc(O)cc(-c3ncc4c(N5CCCNC(=O)C5)nc(OCC5(CN6CCC7(CC6)CC(CN6CCN(c8ccc9c(c8)CN([C@H]8CCC(=O)NC8=O)C9=O)CC6)C7)CC5)nc4c3F)c12` [Compound 93, (S)-3-(5-(4-((7-((1-(((7-(8-ethyl-7-fluoro-3-hydroxynaphthalen-1-yl)-8-fluoro-4-(3-oxo-1,4-diazepan-1-yl)pyrido[4,3-d]pyrimidin-2-yl)oxy)methyl)cyclopropyl)methyl)-7-azaspiro[3.5]nonan-2-yl)methyl)piperazin-1-yl)-1-oxoisoindolin-2-yl)piperidine-2,6-dione] showed a DC50 in test [3] above 100 nM. Moreover, the GI50 in test [2] (SW620 cells, 6 days) is above 100 nM.

`CCc1c(F)ccc2cc(O)cc(-c3ncc4c(N5CCC[C@@](C)(O)C5)nc(OCC5(CN6CC7(CC(N8CCN(c9ccc%10c(c9)CN([C@H]9CCC(=O)NC9=O)C%10=O)CC8)C7)C6)CC5)nc4c3F)c12` [Compound 122, (S)-3-(5-(4-(2-((1-(((7-(8-ethyl-7-fluoro-3-hydroxynaphthalen-1-yl)-8-fluoro-4-((R)-3-hydroxy-3-methylpiperidin-1-yl)pyrido[4,3-d]pyrimidin-2-yl)oxy)methyl)cyclopropyl)methyl)-2-azaspiro[3.3]heptan-6-yl)piperazin-1-yl)-1-oxoisoindolin-2-yl)piperidine-2,6-dione]: in test [3], the half-maximal degradation concentration (DC50) fell in the range of 1 to 10 nM. Also, the 50% growth inhibitory concentration (GI50) in test [2] (SW620 cells, 6 days) is below 10 nM.

With `C[C@@]1(O)CCCN(c2nc(OCC3(CN4CCC(CN5CCN(c6ccc7c(c6)CN([C@H]6CCC(=O)NC6=O)C7=O)CC5)CC4)CC3)nc3c(F)c(-c4cc(O)cc5ccc(F)c(Cl)c45)ncc23)C1` [Compound 156, (S)-3-(5-(4-((1-((1-(((7-(8-chloro-7-fluoro-3-hydroxynaphthalen-1-yl)-8-fluoro-4-((R)-3-hydroxy-3-methylpiperidin-1-yl)pyrido[4,3-d]pyrimidin-2-yl)oxy)methyl)cyclopropyl)methyl)piperidin-4-yl)methyl)piperazin-1-yl)-1-oxoisoindolin-2-yl)piperidine-2,6-dione], the DC50 in test [3] is below 1 nM. Also, the GI50 in test [2] (SW620 cells, 6 days) was below 10 nM.

`C[C@@]1(O)CCCN(c2nc(OCC3(CN4CCC5(CC4)CC(CN4CCN(c6ccc7c(c6)CN([C@H]6CCC(=O)NC6=O)C7=O)CC4)C5)CC3)nc3c(F)c(-c4cc(O)cc5ccc(F)c(Cl)c45)ncc23)C1` [Compound 157, (S)-3-(5-(4-((7-((1-(((7-(8-chloro-7-fluoro-3-hydroxynaphthalen-1-yl)-8-fluoro-4-((R)-3-hydroxy-3-methylpiperidin-1-yl)pyrido[4,3-d]pyrimidin-2-yl)oxy)methyl)cyclopropyl)methyl)-7-azaspiro[3.5]nonan-2-yl)methyl)piperazin-1-yl)-1-oxoisoindolin-2-yl)piperidine-2,6-dione] showed a DC50 in test [3] below 1 nM. In addition, the GI50 in test [2] (SW620 cells, 6 days) was below 10 nM.

`CCc1c(F)ccc2cc(O)cc(-c3ncc4c(N5CCC[C@@](C)(O)C5)nc(OCC5(CN6CC(N7CC8(CN(c9ccc%10c(c9)CN(C9CCC(=O)NC9=O)C%10=O)C8)C7)C6)CC5)nc4c3F)c12` (stereo partly drawn) [Compound 158, 3-(5-(6-(1-((1-(((7-(8-ethyl-7-fluoro-3-hydroxynaphthalen-1-yl)-8-fluoro-4-((R)-3-hydroxy-3-methylpiperidin-1-yl)pyrido[4,3-d]pyrimidin-2-yl)oxy)methyl)cyclopropyl)methyl)azetidin-3-yl)-2,6-diazaspiro[3.3]heptan-2-yl)-1-oxoisoindolin-2-yl)piperidine-2,6-dione] registered a DC50 in test [3] of 1 to 10 nM. The GI50 in test [2] (SW620 cells, 6 days) was below 10 nM.

Consider `CCc1c(F)ccc2cc(O)cc(-c3ncc4c(N5CCC[C@@](C)(O)C5)nc(OCC5(CN6CCC7(CC6)CC(C)(N6CCN(c8ccc9c(c8)CN(C8CCC(=O)NC8=O)C9=O)CC6)C7)CC5)nc4c3F)c12` (stereo partly drawn) [Compound 159, 3-[5-[4-[7-[[1-[[7-(8-ethyl-7-fluoro-3-hydroxy-1-naphthyl)-8-fluoro-4-[(3R)-3-hydroxy-3-methyl-1-piperidyl]pyrido[4,3-d]pyrimidin-2-yl]oxymethyl]cyclopropyl]methyl]-2-methyl-7-azaspiro[3.5]nonan-2-yl]piperazin-1-yl]-1-oxo-isoindolin-2-yl]piperidine-2,6-dione], for which the 50% degradation concentration (DC50) in test [3] is below 1 nM. Further, in test [2] (SW620 cells, 6 days), the 50% growth inhibitory concentration (GI50) is below 10 nM.

`CCc1c(F)ccc2cc(O)cc(-c3ncc4c(N5CCCOC6CC65)nc(OCC5(CN6CCC7(CC6)CC(CN6CCN(c8ccc9c(c8)CN([C@H]8CCC(=O)NC8=O)C9=O)CC6)C7)CC5)nc4c3F)c12` (stereo partly drawn) [Compound 165, (3S)-3-(5-(4-((7-((1-(((4-(2-oxa-6-azabicyclo[5.1.0]octan-6-yl)-7-(8-ethyl-7-fluoro-3-hydroxynaphthalen-1-yl)-8-fluoropyrido[4,3-d]pyrimidin-2-yl)oxy)methyl)cyclopropyl)methyl)-7-azaspiro[3.5]nonan-2-yl)methyl)piperazin-1-yl)-1-oxoisoindolin-2-yl)piperidine-2,6-dione] displayed a DC50 in test [3] of 1 to 10 nM. Further, in test [2], the GI50 was in the range of 10 to 100 nM.
